Measured values: ChEMBL document CHEMBL1130058, “Structure-cytoprotective activity relationship of simple molecules containing an alpha,beta-unsaturated carbonyl system” (1997)

Species on record: Rattus norvegicus
Experiment: Gastric cytoprotective activity in male wistar rat
Assay type: functional

| SMILES | Cytoprotective effect |
| --- | --- |
| CC1=CC(=O)CC1 | 4.3 |
| CC1CC(O)=CC(=O)O1 (centres undefined) | 4.66 |
| O=C(O)/C=C/c1ccoc1 | 4.6 |
| C/C=C(/C)C(=O)OC | 5 |
| COC(=O)C=C(C)C | 4.5 |
| C/C=C(\C)C(=O)OCC | 4.8 |
| COc1cc2c(c3oc(=O)ccc13)OCO2 | 4.2 |
| C=C(C=O)C1CCC(C)(O)CC1 (centres undefined) | 0.7 |
| CCOC(=O)CC(=O)c1ccoc1 | 4.75 |
| C=C(C)C(=O)OC | 4.8 |
| O=C1C=CCC1 | 1.3 |
| C/C=C(\C)C(=O)O | 5 |
| C=C(C=O)C1CC=C(C)CC1 (centres undefined) | 0.9 |
| CC1=CC(=O)C(=C(C)C)CC1 | 4.3 |
| O=C1C=CCCO1 | 0.55 |
| C/C=C(\C)C(=O)OC | 5 |
| C/C=C(/C)C(=O)O | 3.5 |
| C/C=C(\C)C=O [2-methyl-(E)-2-butenal] | 4.6 |
| O=c1cc(O)c2ccccc2o1 [4-HYDROXYCOUMARINS] | 4.62 |
| C=CC(=O)OCC [ACRYLIC ACID ETHYL ESTER] | 4.3 |
| C=CC#N [ACRYLONITRILE] | 3.5 |
| O=C/C=C/c1ccccc1 [CINNAMALDEHYDE] | 4.5 |
| O=C(O)/C=C/c1ccccc1 [CINNAMIC ACID] | 5 |
| O=c1ccc2ccccc2o1 [COUMARIN] | 4.7 |
| COC(=O)/C=C/c1ccccc1 [E-METHYL CINNAMATE] | 2.9 |
| COc1cc2ccc(=O)oc2c(O)c1O [FRAXETIN] | 4.75 |
| C#CC(=O)OCC [PROPYNOIC ACID ETHYL ESTER] | 0.43 |
| C=C1CCOC1=O [TULIPALINE A] | 0.25 |
| O=c1ccc2ccc(O)cc2o1 [UMBELLIFERONE] | 3.8 |
